Laboratory results: article PMC8865654, “Chiral evasion and stereospecific antifolate resistance in Staphylococcus aureus” (PLoS Computational Biology, 2022)

Experiments:
[1] = target: T1, Staphylococcus aureus dihydrofolate reductase (SaDHFR), wild type (Staphylococcus aureus, UniProt P0A017); assay: X-ray crystal structure (re-refined from 4XEC data and newly deposited); also enzyme inhibition with t-NADPH pre-incubation (Fig E in S1 Text); type: binding
T1 construct: gene folA

[2] = target: T1, Staphylococcus aureus dihydrofolate reductase (SaDHFR), wild type; assay: X-ray crystal structure (ternary with R-27); enzyme inhibition assay with isolated t-NADPH; type: biochemical

T1 sequence (P0A017 2-159): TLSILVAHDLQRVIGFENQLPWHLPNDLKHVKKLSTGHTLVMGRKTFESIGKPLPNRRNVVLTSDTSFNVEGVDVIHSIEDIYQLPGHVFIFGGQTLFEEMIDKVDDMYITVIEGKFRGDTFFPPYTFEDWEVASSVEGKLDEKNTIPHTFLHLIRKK

Row | Compound | X-ray crystal structure (re-refined from 4XEC data and newly deposited); also en [1] | IC50 [2] [µM]
1 | CCc1nc(N)nc(N)c1C#C[C@H](C)c1cc(OC)cc(-c2ccncc2)c1 [R-27] | the PDB ID for R-27:t-NADPH:SaDHFR is 7T7S | –
2 | NC(=O)C1=CN2[C@@H]3O[C@H](COP(=O)(O)OP(=O)(O)OC[C@H]4O[C@@H](n5cnc6c(N)ncnc65)[C@H](OP(=O)(O)O)[C@@H]4O)[C@@H](O)[C@H]3O[C@@H]2CC1 [t-NADPH] | – | 111 ± 6
